For the assay, the system named is HCT116 EGFR protein level, western blot, 24 h. Description: reduction of EGFR protein levels, late-stage follow-up, counter-screen for KLF5 inhibitor project, cell-based, HCT116 colorectal carcinoma, chemiluminescent western blot (AID 588648). The note with it: at 10 µM; for inhibition: stronger effect = higher value; for fold change: measured here: EGFR band fold change vs DMSO.

Molecules are shown by their SMILES. Activity calls are given as the source filed them.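 The calls were made as follows: active = Change of at least 30% in epidermal growth factor receptor protein level versus solvent-only controls, drop or rise; inactive = receptor level change under 30% either way.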

A word on the inhibition: it is the share of the control response that was lost under treatment. In the case of `CN(C(=O)COC(=O)/C=C/c1cccc([N+](=O)[O-])c1)C1CCS(=O)(=O)C1` (stereo unspecified), the inhibition was 1.68% (inactive) and the fold change is -1.02.
For `CN(C(=O)CNC(=O)/C=C/c1cccc(Cl)c1)C1CCS(=O)(=O)C1` (stereo unspecified), in that order: 10.3% (inactive) and -1.11.
For `CN(C(=O)CNC(=O)/C=C/c1cccc(Cl)c1)C1CCS(=O)(=O)CC1` the same measures were 12.7% (inactive) and -1.15.

The values are drawn from PubChem BioAssay AID588648 (The Scripps Research Institute Molecular Screening Center, 2011).
